In US11214803B2, “Modulators of YAP1 expression” (Ionis Pharmaceuticals, Inc., priority 2019, dated 2022):
Strand notation (5' to 3'): a small letter for the sugar, then the base; units joined by * are phosphorothioate-linked, units joined directly phosphodiester-linked; [ ] holds rarer units or linkages, { } end groups; capitals alone tell only the bases. k = constrained ethyl (cEt); [5mC] = 5-methylcytosine; d = 2'-deoxy (DNA)

Key:
[1] = system: Yap1 mRNA; assay: Antisense inhibition of human Yap1 in A-431 cells by cEt gapmers, single dose (Example 4, RTS4814); assay type: cell-based; conditions: Yap1 mRNA remaining as percent of untreated control, 3-10-3 cEt gapmers, A-431 cells
How it was run: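 Values are % UTC: Yap1 mRNA by quantitative RT-PCR, normalized to RIBOGREEN total RNA. Cells were exposed ~48 h to 2,000 nM oligonucleotide without transfection. Oligonucleotides were 16-nucleoside gapmers with three cEt nucleosides per wing, ten-deoxy gap, P=S linkages throughout.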

[2] = system: Yap1 mRNA; assay: Dose-dependent inhibition of human Yap1 in A-431 cells (Example 8, 10,000 cells per well, RTS4814); assay type: cell-based; conditions: A-431 cells; for IC50: Yap1 mRNA
How it was run: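 Yap1 mRNA, normalized to RIBOGREEN total RNA and expressed as % untreated control, was read with RTS4814 about 48 h after free-uptake oligonucleotide treatment of A-431 cells at 10,000 cells/well. IC50 derived by linear regression of log/linear data.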

1074486 (kA*kT*kT*d[5mC]*dA*d[5mC]*dT*dA*dA*dT*dA*dT*dG*kG*kT*k[5mC]; antisense) [compound 1074486]
YAP1 (% UTC) ([1]; Table 36): 4 % UTC | % UTC (Yap1 mRNA) ([2]; 31.3 nM): 55 % UTC | % UTC (Yap1 mRNA) ([2]; 125.0 nM): 26 % UTC | % UTC (Yap1 mRNA) ([2]; 500.0 nM): 10 % UTC | % UTC (Yap1 mRNA) ([2]; 2000.00 nM): 6 % UTC | IC50 [2]: < 20 nM

1076119 (kG*kT*kT*dA*dA*dA*dT*dA*dT*dG*dA*dA*dT*kT*kG*kG; antisense) [compound 1076119]
YAP1 (% UTC) ([1]; Table 37): 7 % UTC | % UTC (Yap1 mRNA) ([2]; 31.3 nM): 82 % UTC | % UTC (Yap1 mRNA) ([2]; 125.0 nM): 35 % UTC | % UTC (Yap1 mRNA) ([2]; 500.0 nM): 12 % UTC | % UTC (Yap1 mRNA) ([2]; 2000.00 nM): 6 % UTC | IC50 [2]: 100 nM

1074679 (antisense kT*k[5mC]*kT*dT*dA*dA*dT*d[5mC]*dT*dG*dT*dG*dG*k[5mC]*kT*kA) [compound 1074679]
YAP1 (% UTC) ([1]; Table 37): 5 % UTC | % UTC (Yap1 mRNA) ([2]; 31.3 nM): 52 % UTC | % UTC (Yap1 mRNA) ([2]; 125.0 nM): 16 % UTC | % UTC (Yap1 mRNA) ([2]; 500.0 nM): 6 % UTC | % UTC (Yap1 mRNA) ([2]; 2000.00 nM): 5 % UTC | IC50 [2]: < 20 nM

1075766 (kG*kG*kA*dG*dA*dA*d[5mC]*dA*d[5mC]*dA*dA*dG*dA*kG*kG*k[5mC]; antisense) [compound 1075766]
YAP1 (% UTC) ([1]; Table 36): 5 % UTC | % UTC (Yap1 mRNA) ([2]; 31.3 nM): 56 % UTC | % UTC (Yap1 mRNA) ([2]; 125.0 nM): 21 % UTC | % UTC (Yap1 mRNA) ([2]; 500.0 nM): 11 % UTC | % UTC (Yap1 mRNA) ([2]; 2000.00 nM): 8 % UTC | IC50 [2]: < 20 nM

1074454 (kT*kG*kT*dG*dA*d[5mC]*dT*dA*dA*dT*dG*dA*dT*kA*kG*k[5mC]; antisense) [compound 1074454]
YAP1 (% UTC) ([1]; Table 36): 1 % UTC | % UTC (Yap1 mRNA) ([2]; 31.3 nM): 39 % UTC | % UTC (Yap1 mRNA) ([2]; 125.0 nM): 9 % UTC | % UTC (Yap1 mRNA) ([2]; 500.0 nM): 3 % UTC | % UTC (Yap1 mRNA) ([2]; 2000.00 nM): 3 % UTC | IC50 [2]: < 20 nM

1076022 (kT*kA*kA*dT*dT*dA*dG*dA*dT*dG*d[5mC]*dT*dG*kA*k[5mC]*kA; antisense) [compound 1076022]
YAP1 (% UTC) ([1]; Table 36): 2 % UTC | % UTC (Yap1 mRNA) ([2]; 31.3 nM): 63 % UTC | % UTC (Yap1 mRNA) ([2]; 125.0 nM): 28 % UTC | % UTC (Yap1 mRNA) ([2]; 500.0 nM): 8 % UTC | % UTC (Yap1 mRNA) ([2]; 2000.00 nM): 5 % UTC | IC50 [2]: 40 nM

1075990 (k[5mC]*kG*kT*dT*dA*dT*dT*dA*dT*dG*d[5mC]*dA*dG*k[5mC]*kA*kA; antisense) [compound 1075990]
YAP1 (% UTC) ([1]; Table 36): 1 % UTC | % UTC (Yap1 mRNA) ([2]; 31.3 nM): 28 % UTC | % UTC (Yap1 mRNA) ([2]; 125.0 nM): 6 % UTC | % UTC (Yap1 mRNA) ([2]; 500.0 nM): 3 % UTC | % UTC (Yap1 mRNA) ([2]; 2000.00 nM): 3 % UTC | IC50 [2]: < 20 nM

1075222 (kG*kT*kA*dT*dT*dT*dG*dG*dA*d[5mC]*dA*dA*d[5mC]*kT*k[5mC]*kT; antisense) [compound 1075222]
YAP1 (% UTC) ([1]; Table 36): 3 % UTC | % UTC (Yap1 mRNA) ([2]; 31.3 nM): 75 % UTC | % UTC (Yap1 mRNA) ([2]; 125.0 nM): 30 % UTC | % UTC (Yap1 mRNA) ([2]; 500.0 nM): 8 % UTC | % UTC (Yap1 mRNA) ([2]; 2000.00 nM): 5 % UTC | IC50 [2]: 100 nM

1076183 (k[5mC]*kT*kT*d[5mC]*dT*dA*dT*dA*dA*dT*dT*dA*dG*k[5mC]*k[5mC]*kA; antisense) [compound 1076183]
YAP1 (% UTC) ([1]; Table 37): 7 % UTC | % UTC (Yap1 mRNA) ([2]; 31.3 nM): 65 % UTC | % UTC (Yap1 mRNA) ([2]; 125.0 nM): 22 % UTC | % UTC (Yap1 mRNA) ([2]; 500.0 nM): 9 % UTC | % UTC (Yap1 mRNA) ([2]; 2000.00 nM): 6 % UTC | IC50 [2]: 40 nM

1074487 (kA*kG*kA*dT*dT*d[5mC]*dA*d[5mC]*dT*dA*dA*dT*dA*kT*kG*kG; antisense) [compound 1074487]
YAP1 (% UTC) ([1]; Table 37): 7 % UTC | % UTC (Yap1 mRNA) ([2]; 31.3 nM): 73 % UTC | % UTC (Yap1 mRNA) ([2]; 125.0 nM): 28 % UTC | % UTC (Yap1 mRNA) ([2]; 500.0 nM): 11 % UTC | % UTC (Yap1 mRNA) ([2]; 2000.00 nM): 6 % UTC | IC50 [2]: 100 nM

1074775 (kG*kG*kT*dT*dT*dA*dT*dT*dG*dT*dA*dA*dA*kA*kG*k[5mC]; antisense) [compound 1074775]
YAP1 (% UTC) ([1]; Table 37): 3 % UTC | % UTC (Yap1 mRNA) ([2]; 31.3 nM): 26 % UTC | % UTC (Yap1 mRNA) ([2]; 125.0 nM): 5 % UTC | % UTC (Yap1 mRNA) ([2]; 500.0 nM): 2 % UTC | % UTC (Yap1 mRNA) ([2]; 2000.00 nM): 2 % UTC | IC50 [2]: < 20 nM
